Marks after values point to notes of the source that are not given here.
Columns and labels:
Assay type in all cases: in vivo
Mice = assay: Peroral tolerance in mice; settings: mouse, in vivo
Source text: Set forth below is data obtained on the compounds of Examples 17, 19 and 20 that illustrates the pharmacological action of the compounds of the present invention.

anesthetized rat = assay: Lypressin-induced T-wave increase in the ECG (lypressin coronary spasm), method of M. Leitold et al.
Source text: (§1) In particular, they have a pronounced cardiovascular action. On isolated strips of veins from dogs, they act against the K⁺-induced contraction in a lower concentration than on aorta strips. On isolated hearts from guinea pigs, they increase coronary flow as a function of the dose. On anesthetized rats, they prevent lypressin coronary spasm as a function of the dose and significiantly increase the survival rate of rats following acute cardiac infarction. On normotensive conscious dogs, they lower the systolic blood pressure for a period of 6-8 hours after oral administration. On artifically respirated anesthetized, thoraxotomized dogs, they reduce the mean arterial pressure, the left ventricular systolic pressure, the left ventricular end diastolic pressure and the pressure in the Arteria pulmonalis and reduce the peripheral vascular resistance. In contrast to the known organic nitrate esters, they also lead to a long-lasting reduction in the systolic blood pressure of spontaneously hypertensive rats. Such an action profile is not known for any of the substances of similar structure which have already been described.

rats = assay: Survival rate after acute coronary ligature, method of I. Lepran et al.; settings: 100.0 mg/kg orally 5 minutes before ligature
Source text: as §1

anesthetized dogs = assay: Cardiovascular actions following intra-venous administration, opened thorax and artificial respiration; settings: opened thorax, artificial respiration
Source text: as §1

conscious beagle dogs = assay: Systolic blood pressure and heart rate following peroral administration; settings: 5.0 mg/kg peroral, mean ± SEM
Source text: as §1

## COc1ccccc1N1CCN(CC(O)CO[C@H]2CO[C@H]3[C@@H]2OC[C@@H]3O[N+](=O)[O-])CC1 (some centres unmarked) [Example 20, 5-O-<3-[4-(2-Methoxyphenyl)-piprazinyl]-2-hydroxypropyl>-isoidide-2-nitrate]
Mice
  tolerance (clinical symptoms, fatal consequences): without clinical symptoms and without fatal consequences
Anesthetized rat; Rattus norvegicus, po, 0.5 h, perorally 30 minutes before the lypressin injection, dose column in mg/kg
  ED50: 73.8 mg/kg
Anesthetized rat; perorally at various times before the lypressin injection
  Duration of action at the ED50 dose: 4 h
rats; control 21/80
  Number of rats surviving after an acute coronary ligature, 24 hours: 14/20*
  Number of rats surviving after an acute coronary ligature, 7 days: 14/20*
rats; control 23/80
  Number of rats surviving after an acute coronary ligature, 60 minutes: 14/20*
Anesthetized dogs; 30 µg/kg intra-venous
  CO, Action of substance: 0.81 ± 0.3 l/M
  CO, Change: 0.38 ± 0.1 l/M
  CO, Duration of action: 12 ± 6 min
  HR (heart rate), Action of substance: 192 ± 10 Bts/M
  HR (heart rate), Change: 2 ± 2 Bts/M
  HR (heart rate), Duration of action: 11 ± 4 min
  LVEDP (left ventricular enddiastolic pressure), Action of substance: 7.5 ± 1.2 mmHg
  LVEDP (left ventricular enddiastolic pressure), Change: 0.1 ± 0.2 mmHg
  LVEDP (left ventricular enddiastolic pressure), Duration of action: 9 ± 7 min
  LVSP (left ventricular systolic blood pressure), Action of substance: 116 ± 10 mmHg
  LVSP (left ventricular systolic blood pressure), Change: 22 ± 4 mmHg
  LVSP (left ventricular systolic blood pressure), Duration of action: 8 ± 3 min
  MAP (mean arterial blood pressure), Action of substance: 66 ± 3 mmHg
  MAP (mean arterial blood pressure), Change: 25 ± 5 mmHg
  MAP (mean arterial blood pressure), Duration of action: 15 ± 2 min
  PAP, Action of substance: 16.0 ± 1 mmHg
  PAP, Change: 0.4 ± 0.2 mmHg
  PAP, Duration of action: 11 ± 6 min
  SV, Action of substance: 7.5 ± 2 mL/s
  SV, Change: 2.3 ± 1 mL/s
  SV, Duration of action: 12 ± 6 min
  TPR (total peripheral vascular resistance), Action of substance: 63 ± 13 mmHg/ml
  TPR (total peripheral vascular resistance), Change: 2 ± 13 mmHg/ml
  TPR (total peripheral vascular resistance), Duration of action: 4 ± 2 min
  dp/dtmax (maximum rate of increase in the left ventricular pressure), Action of substance: 2321 ± 363 mmHg/s
  dp/dtmax (maximum rate of increase in the left ventricular pressure), Change: 758 ± 269 mmHg/s
  dp/dtmax (maximum rate of increase in the left ventricular pressure), Duration of action: 15 ± 4 min
Anesthetized dogs; 300 µg/kg intra-venous
  CO, Action of substance: 1.32 ± 0.7 l/M
  CO, Change: 0.21 ± 0.6 l/M
  CO, Duration of action: 35 ± 23 min
  HR (heart rate), Action of substance: 197 ± 12 Bts/M
  LVEDP (left ventricular enddiastolic pressure), Action of substance: 6.8 ± 1 mmHg
  LVEDP (left ventricular enddiastolic pressure), Change: 1.1 ± 1 mmHg
  LVEDP (left ventricular enddiastolic pressure), Duration of action: 18 ± 13 min
  LVSP (left ventricular systolic blood pressure), Action of substance: 111 ± 11 mmHg
  LVSP (left ventricular systolic blood pressure), Change: 34 ± 5 mmHg
  LVSP (left ventricular systolic blood pressure), Duration of action: 34 ± 12 min
  MAP (mean arterial blood pressure), Action of substance: 58 ± 2 mmHg
  MAP (mean arterial blood pressure), Change: 39 ± 3 mmHg
  MAP (mean arterial blood pressure), Duration of action: 35 ± 15 min
  PAP, Action of substance: 15.7 ± 1 mmHg
  PAP, Change: 0.7 ± 0.3 mmHg
  PAP, Duration of action: 14 ± 13 min
  SV, Action of substance: 7.2 ± 2.5 mL/s
  SV, Change: 0.5 ± 2.9 mL/s
  SV, Duration of action: 33 ± 23 min
  TPR (total peripheral vascular resistance), Action of substance: 35 ± 6 mmHg/ml
  TPR (total peripheral vascular resistance), Change: 39 ± 9 mmHg/ml
  TPR (total peripheral vascular resistance), Duration of action: 6 ± 2 min
  dp/dtmax (maximum rate of increase in the left ventricular pressure), Action of substance: 2056 ± 385 mmHg/s
  dp/dtmax (maximum rate of increase in the left ventricular pressure), Change: 1053 ± 333 mmHg/s
  dp/dtmax (maximum rate of increase in the left ventricular pressure), Duration of action: 36 ± 11 min
Anesthetized dogs; 3000 µg/kg intra-venous
  CO, Action of substance: 2.02 ± 0.8 l/M
  CO, Change: 0.87 ± 0.7 l/M
  CO, Duration of action: 3 ± 0.4 min
  HR (heart rate), Action of substance: 169 ± 34 Bts/M
  HR (heart rate), Change: 30 ± 15 Bts/M
  HR (heart rate), Duration of action: 80 ± 44 min
  LVEDP (left ventricular enddiastolic pressure), Action of substance: 2.7 ± 3.8 mmHg
  LVEDP (left ventricular enddiastolic pressure), Change: 2.3 ± 1.7 mmHg
  LVEDP (left ventricular enddiastolic pressure), Duration of action: 104 ± 51 min
  LVSP (left ventricular systolic blood pressure), Action of substance: 98 ± 21 mmHg
  LVSP (left ventricular systolic blood pressure), Change: 55 ± 15 mmHg
  LVSP (left ventricular systolic blood pressure), Duration of action: 128 ± 12 min
  MAP (mean arterial blood pressure), Action of substance: 56 ± 2 mmHg
  MAP (mean arterial blood pressure), Change: 45 ± 5 mmHg
  MAP (mean arterial blood pressure), Duration of action: 118 ± 20 min
  PAP, Action of substance: 14.6 ± 1 mmHg
  PAP, Change: 1.1 ± 0.3 mmHg
  PAP, Duration of action: > 177 min
  SV, Action of substance: 10.6 ± 3.3 mL/s
  SV, Change: 50 ± 0.7 mL/s
  SV, Duration of action: 4 ± 0.0 min
  TPR (total peripheral vascular resistance), Action of substance: 24 ± 7 mmHg/ml
  TPR (total peripheral vascular resistance), Change: 56 ± 7 mmHg/ml
  TPR (total peripheral vascular resistance), Duration of action: 27 ± 21 min
  dp/dtmax (maximum rate of increase in the left ventricular pressure), Action of substance: 1977 ± 537 mmHg/s
  dp/dtmax (maximum rate of increase in the left ventricular pressure), Change: 1395 ± 263 mmHg/s
  dp/dtmax (maximum rate of increase in the left ventricular pressure), Duration of action: > 148 min
Conscious beagle dogs
  HR (heart rate), Action of substance after 1 hours: 98 ± 7 Bts/M
  HR (heart rate), Action of substance after 2 hours: 109 ± 10 Bts/M
  HR (heart rate), Action of substance after 4 hours: 82 ± 7 Bts/M
  HR (heart rate), Action of substance after 6 hours: 78 ± 6 Bts/M
  HR (heart rate), Action of substance after 8 hours: 77 ± 6 Bts/M
  SBP (systolic blood pressure), Action of substance after 1 hours: 97 ± 8 mmHg
  SBP (systolic blood pressure), Action of substance after 2 hours: 95 ± 6 mmHg
  SBP (systolic blood pressure), Action of substance after 4 hours: 106 ± 4 mmHg
  SBP (systolic blood pressure), Action of substance after 6 hours: 113 ± 4 mmHg
  SBP (systolic blood pressure), Action of substance after 8 hours: 121 ± 3 mmHg

— patent EP0319030A1, “Aminopropanol derivatives of 1,4:3,6-dianhydro-hexitol nitrates, processes for their preparation and their use as medicaments” (Heinrich Mack Nachf., priority 1987, dated 1989)
